In brackets after ≈: the same amount, converted by molar mass.
Experiments:
Test in all cases: ≥ marks a high value that may be exact or a test limit, other limits are often not marked, values filed in µg/mL are converted to µM
[1] = test system: Pseudomonas aeruginosa ATCC 27853
[2] = test system: Staphylococcus aureus ATCC 25923
[3] = test system: Staphylococcus aureus ATCC 33591
[4] = test system: Staphylococcus epidermidis ATCC 35984
Alternaria alternata = test system: Alternaria alternata
Botrytis cinerea = test system: Botrytis cinerea
Cladosporium herbarum = test system: Cladosporium herbarum
[5] = test system: Clavibacter michiganensis subsp. michiganensis DSM 46294
Fusarium solani = test system: Fusarium solani
[6] = test system: Pectobacterium carotovorum subsp. carotovorum DSM 30168
[7] = test system: Pseudomonas corrugata DSM 7228
[8] = test system: Pseudomonas syringae pv. syringae DSM 10604
[9] = test system: Pseudomonas syringae pv. tomato DC3000
[10] = test system: Xanthomonas vesicatoria DSM 50861
[11] = test system: Bacillus subtilis KCTC 3068
[12] = test system: Enterococcus faecalis ATCC 51575
[13] = test system: Enterococcus faecalis KCCM 29212
[14] = test system: Enterococcus faecium ATCC 51559
[15] = test system: Enterococcus faecium KCCM 12118
[16] = test system: Escherichia coli KCTC 1682
[17] = test system: Pseudomonas aeruginosa KCTC 1637
[18] = test system: Salmonella typhimurium KCTC 1926
[19] = test system: Staphylococcus aureus KCCM 40510
[20] = test system: Staphylococcus aureus KCTC 1621
[21] = test system: Staphylococcus epidermidis KCTC 1917
Bacillus subtilis = test system: Bacillus subtilis
Candida albicans SC5314 = test system: Candida albicans SC5314
[22] = test system: Escherichia coli ATCC 25922
[23] = test system: Staphylococcus aureus ATCC 2592
[24] = test system: Acinetobacter baumannii ATCC 19606
[25] = test system: Acinetobacter baumannii ATCC BAA-1605
[26] = test system: Acinetobacter baumannii ATCC BAA-747
[27] = test system: Acinetobacter baumannii NR-9667
[28] = test system: Pseudomonas aeruginosa 1109
[29] = test system: Pseudomonas aeruginosa ATCC 10145
[30] = test system: Pseudomonas aeruginosa ATCC 15442
[31] = test system: Pseudomonas aeruginosa ATCC 25619
[32] = test system: Pseudomonas aeruginosa ATCC 35032
[33] = test system: Pseudomonas aeruginosa ATCC 9027
[34] = test system: Pseudomonas aeruginosa ATCC 9721
[35] = test system: Pseudomonas aeruginosa ATCC BAA-1744
[36] = test system: Pseudomonas aeruginosa PAO1

CC[C@H](C)[C@H](NC(=O)[C@H](CCCCN)NC(=O)[C@@H](NC(=O)[C@H](Cc1ccccc1)NC(=O)[C@H](C)NC(=O)[C@H](CCCCN)NC(=O)CNC(=O)[C@H](Cc1ccccc1)NC(=O)[C@H](CCCCN)NC(=O)[C@H](CCCCN)NC(=O)[C@H](C)N)C(C)C)C(=O)N[C@@H](CC(C)C)C(N)=O [AKKFGKAFVKIL]
MIC [1]: 33.5 µM (≈ 45.2 µg/mL)
MIC [2]: 190 µM (≈ 256 µg/mL)
MIC [3]: ≥ 94.8 µM
MIC [4]: ≥ 94.8 µM

C[C@H](NC(=O)[C@H](Cc1cnc[nH]1)NC(=O)[C@H](CO)NC(=O)[C@@H](N)CC(=O)O)C(=O)N[C@@H](CCCCN)C(=O)N[C@@H](CCCN=C(N)N)C(=O)N[C@@H](Cc1cnc[nH]1)C(=O)N[C@@H](Cc1cnc[nH]1)C(=O)NCC(=O)N[C@H](C(=O)N[C@@H](CCCCN)C(=O)N[C@@H](CCCN=C(N)N)C(=O)N[C@@H](CCCCN)C(=O)N[C@@H](Cc1ccccc1)C(=O)N[C@@H](Cc1cnc[nH]1)C(=O)N[C@@H](CCC(=O)O)C(=O)N[C@@H](CCCCN)C(=O)N[C@@H](Cc1cnc[nH]1)C(=O)N[C@@H](Cc1cnc[nH]1)C(=O)N[C@@H](CO)C(=O)N[C@@H](Cc1cnc[nH]1)C(=O)N[C@@H](CCCN=C(N)N)C(=O)NCC(=O)N[C@H](C(=O)O)[C@@H](C)O)[C@@H](C)O [DSHAKRHHGTKRKFHEKHHSHRGT]
MIC (Alternaria alternata): 22 µM (≈ 64 µg/mL)
MIC (Botrytis cinerea): 22 µM (≈ 64 µg/mL)
MIC (Cladosporium herbarum): 22 µM (≈ 64 µg/mL)
MIC [5]: 22 µM (≈ 64 µg/mL)
MIC (Fusarium solani): 5.49 µM (≈ 16 µg/mL)
MIC [6]: 22 µM (≈ 64 µg/mL)
MIC [7]: 22 µM (≈ 64 µg/mL)
MIC [8]: 22 µM (≈ 64 µg/mL)
MIC [9]: 22 µM (≈ 64 µg/mL)
MIC [10]: 22 µM (≈ 64 µg/mL)

CC[C@H](C)[C@H](NC(=O)CN)C(=O)NCC(=O)N[C@@H](CCCCN)C(=O)N[C@@H](Cc1ccccc1)C(=O)N[C@@H](CC(C)C)C(=O)N[C@@H](CCCCN)C(=O)N[C@@H](CCCCN)C(=O)N[C@@H](C)C(=O)N[C@@H](CCCCN)C(=O)N[C@@H](CCCCN)C(=O)N[C@@H](Cc1ccccc1)C(=O)NCC(=O)N[C@@H](CCCCN)C(=O)N[C@@H](C)C(=O)N[C@@H](Cc1ccccc1)C(=O)N[C@H](C(N)=O)C(C)C [GIGKFLKKAKKFGKAFV]
MIC [2]: 17.1 µM (≈ 32 µg/mL)
MIC [3]: ≥ 48.5 µM
MIC [4]: 3.03 µM (≈ 5.65 µg/mL)

CC[C@H](C)[C@H](NC(=O)[C@H](CS)NC(=O)[C@H](CC(C)C)NC(=O)[C@@H](N)CC(C)C)C(=O)N[C@@H](C)C(=O)N[C@@H](CC(C)C)C(=O)N[C@@H](CCCN=C(N)N)C(=O)N[C@@H](CCCCN)C(=O)N[C@@H](CCCCN)C(N)=O [LLCIALRKK]
MIC [11]: 3.78 µM (≈ 4 µg/mL)
MIC [12]: 0.946 µM (≈ 0.999 µg/mL)
MIC [13]: 0.946 µM (≈ 0.999 µg/mL)
MIC [14]: 1.89 µM (≈ 2 µg/mL)
MIC [15]: 7.57 µM (≈ 7.99 µg/mL)
MIC [16]: 3.78 µM (≈ 4 µg/mL)
MIC [17]: 7.57 µM (≈ 7.99 µg/mL)
MIC [18]: 3.78 µM (≈ 4 µg/mL)
MIC [19]: 7.57 µM (≈ 7.99 µg/mL)
MIC [20]: 7.57 µM (≈ 7.99 µg/mL)
MIC [21]: 3.78 µM (≈ 4 µg/mL)

CC[C@H](C)[C@H](NC(=O)[C@H](CCCCN)NC(=O)[C@H](CCCN=C(N)N)NC(=O)[C@H](CC(C)C)NC(=O)[C@H](C)NC(=O)[C@H](CCCCN)NC(=O)[C@H](CS)NC(=O)[C@H](CC(C)C)NC(=O)[C@@H](N)CC(C)C)C(N)=O [LLCKALRKI]
MIC [11]: 3.78 µM (≈ 4 µg/mL)
MIC [12]: 30.3 µM (≈ 32 µg/mL)
MIC [13]: 7.57 µM (≈ 7.99 µg/mL)
MIC [14]: 1.89 µM (≈ 2 µg/mL)
MIC [15]: 3.78 µM (≈ 4 µg/mL)
MIC [16]: 7.57 µM (≈ 7.99 µg/mL)
MIC [17]: 7.57 µM (≈ 7.99 µg/mL)
MIC [18]: 7.57 µM (≈ 7.99 µg/mL)
MIC [19]: 7.57 µM (≈ 7.99 µg/mL)
MIC [20]: 7.57 µM (≈ 7.99 µg/mL)
MIC [21]: 7.57 µM (≈ 7.99 µg/mL)

CC(C)[C@H](N)C(=O)N[C@@H](CCCCN)C(=O)N[C@@H](CCCN=C(N)N)C(=O)N[C@@H](Cc1c[nH]c2ccccc12)C(=O)N[C@@H](CCCCN)C(=O)N[C@@H](CCCCN)C(=O)N[C@@H](Cc1c[nH]c2ccccc12)C(=O)N[C@@H](Cc1ccccc1)C(=O)N[C@@H](CCCN=C(N)N)C(=O)N[C@@H](CCCCN)C(=O)N[C@@H](Cc1c[nH]c2ccccc12)C(=O)N[C@@H](CCCCN)C(=O)N[C@@H](CCCCN)C(=O)N[C@@H](Cc1c[nH]c2ccccc12)C(=O)N[C@H](C(N)=O)C(C)C [VKRWKKWFRKWKKWV]
MIC (Bacillus subtilis): 4.3 µM (≈ 9.41 µg/mL)
MIC (Candida albicans SC5314): 4.3 µM (≈ 9.41 µg/mL)
MIC [22]: 2.1 µM (≈ 4.6 µg/mL)
MIC [23]: 8.5 µM (≈ 18.6 µg/mL)

CC[C@H](C)[C@H](NC(=O)[C@H](CCCCN)NC(=O)[C@H](CCCCN)NC(=O)[C@H](Cc1c[nH]c2ccccc12)NC(=O)[C@@H](NC(=O)[C@H](CCCCN)NC(=O)[C@@H](NC(=O)[C@H](CCCN=C(N)N)NC(=O)[C@H](CCCN=C(N)N)NC(=O)[C@H](CCCCN)NC(=O)[C@@H](N)Cc1c[nH]c2ccccc12)[C@@H](C)CC)[C@@H](C)CC)C(=O)N[C@@H](CCCN=C(N)N)C(=O)O [WKRRIKIWKKIR]
MIC [24]: > 256 µM
MIC [25]: ≥ 256 µM
MIC [26]: ≥ 256 µM
MIC [27]: ≥ 256 µM
MIC [28]: ≥ 128 µM
MIC [29]: ≥ 256 µM
MIC [30]: ≥ 256 µM
MIC [31]: ≥ 256 µM
MIC [1]: 256 µM (≈ 438 µg/mL)
MIC [32]: ≥ 256 µM
MIC [33]: > 256 µM
MIC [34]: ≥ 256 µM
MIC [35]: ≥ 256 µM
MIC [36]: > 256 µM
